Laboratory results from patent US20070191627A1, “Stilbene derivatives and their use in medicaments” (priority 2003, published 2007).
pIC50: −log10 of the molar value. Like-named read-outs stand apart in the source and are kept apart here.

How the values were obtained:
[1] = tested on: HL-60 human promyelocyte leukemia cells; experiment: Growth inhibition assay in HL-60 cells (72 h, cell count); assay type: cell-based; conditions: for pIC50 / IC50: Homo sapiens; for IC50: 1st determination series, 72 hours, read-out: IC50 (μM), inhibition of growth of HL-60 human promyelocyte leukemia cells
Protocol: The human promyelocyte leukemia cell line HL-60 was purchased from the ATCC (American Type Culture Collection, Rockville, Md., USA). The cells were cultured in RPMI 1640 medium with 10% heat-inactivated fetal calf serum (FCS) (GIBCO, Grand Island Biological Co., Grand Island, N.Y., USA) and with 1% penicillin/streptomycin in a humidified atmosphere with 5% CO2.
The cell numbers were determined by means of a microcell counter CC-108 (Sysmex, Kobe, Japan). For the tests, cells in the logarithmic growth phase were used.
Logarithmically-growing HL-60 cells were prepared in a density of 0.1×10^6 cells/ml in tissue culture flasks and incubated with various concentrations of the stilbene derivatives to be examined. After 72 hours, the cells were counted by means of the microcell counter. The viability of the cells was determined by means of trypan blue staining. Numbers of viable cells were calculated as results.
After 72 hours, the cells were counted by means of the microcell counter. The viability of the cells was determined by means of trypan blue staining. Numbers of viable cells were calculated as results.

[2] = tested on: PC-3; experiment: Clonogenic test series (7 d) in PC-3 prostate cancer cells; assay type: cell-based; conditions: Homo sapiens, PC-3, 168 h
[3] = tested on: LNCaP; experiment: Clonogenic test series (7 d) in LNCaP prostate cancer cells; assay type: cell-based; conditions: Homo sapiens, 168 h, LNCaP cells respond to 5-alpha-dihydrotestosterone
[4] = tested on: DU-145; experiment: Clonogenic test series (7 d) in DU-145 prostate cancer cells; assay type: cell-based; conditions: Homo sapiens, DU-145, 168 h
[5] = molecular target: T1, COX 1 (Homo sapiens, UniProt P23219); experiment: COX (human) inhibitor screening assay, COX 1; assay type: biochemical
T1 construct: purchased IBL Products Company, Hamburg, Germany

[6] = molecular target: T2, COX 2 (Homo sapiens, UniProt P35354); experiment: COX (human) inhibitor screening assay, COX 2; assay type: biochemical; conditions: for COX2/COX1 Ratio: ratio of COX 2 IC50 to COX 1 IC50
T2 construct: purchased IBL Products Company, Hamburg, Germany
T2 sequence (P35354 18-604): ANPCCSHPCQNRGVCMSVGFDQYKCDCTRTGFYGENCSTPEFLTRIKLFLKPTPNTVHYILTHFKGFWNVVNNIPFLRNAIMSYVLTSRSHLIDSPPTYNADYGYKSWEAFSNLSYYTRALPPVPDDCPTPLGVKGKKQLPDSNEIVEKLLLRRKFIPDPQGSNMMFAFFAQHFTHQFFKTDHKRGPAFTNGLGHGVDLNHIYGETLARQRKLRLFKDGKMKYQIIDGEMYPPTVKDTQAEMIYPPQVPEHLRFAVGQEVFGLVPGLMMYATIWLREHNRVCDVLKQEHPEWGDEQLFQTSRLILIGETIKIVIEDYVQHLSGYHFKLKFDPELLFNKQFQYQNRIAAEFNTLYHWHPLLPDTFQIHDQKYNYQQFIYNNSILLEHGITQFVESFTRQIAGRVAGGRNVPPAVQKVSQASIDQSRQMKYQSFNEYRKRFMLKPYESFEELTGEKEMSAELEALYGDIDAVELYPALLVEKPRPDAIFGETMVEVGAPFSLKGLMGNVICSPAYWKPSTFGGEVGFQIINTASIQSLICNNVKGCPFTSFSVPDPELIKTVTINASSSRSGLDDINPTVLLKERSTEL

[7] = tested on: HL-60 cells; experiment: Analysis of intracellular dNTP pools by HPLC in HL-60 cells; assay type: cell-based, human
Protocol: (§1) The analysis of the intracellular dNTP concentrations was carried out according to the method of Garrett and Santi (Garrett, C.; Santi, D. V. A Rapid and Sensitive High-Pressure Liquid Chromatography Assay for Deoxyribonucleoside Triphosphates in Cell Extracts. Anal Biochem. 1979 Nov. 1; 99(2): 268-73.)
(§2) The action of hexahydroxystilbene (“M8”) on the intracellular dNTP concentrations in HL-60 cells was examined. The study was performed as described above. The cells were incubated with 6.25, 12.5 and 25 μM of hexahydroxystilbene, and then the dNTP pools were determined. […] The dATP concentrations dropped during treatment with 12.5 and 25 μM of hexahydroxystilbene to 27 and 41% of the starting values. The depletion of the dATP pools was especially impressive in the case of HT-29 human colon tumor cells; the dATP values dropped there as early as after treatment with 4 μM of the substance in an average of 1.5% of the starting values. […] The action of the substance can also be clarified by this impressive imbalance of the dNTP pools that are precursors of the DNA synthesis. The results of the experiment with HL-60 cells are plotted in FIG. 3.

[8] = tested on: HT-29 human colon tumor cells; experiment: Analysis of intracellular dATP pools in HT-29 cells; assay type: cell-based; conditions: 4 μM, HT-29, average
Protocol: as §1, §2

[9] = tested on: HL-60 cells; experiment: Apoptosis induction, Hoechst 33258/propidium iodide double staining in HL-60 cells; assay type: cell-based, human; conditions: 24 hours
Protocol: Then, the cells were treated for one hour with Hoechst 33258 (HO, Sigma, St. Louis, Mo., USA) and propidium iodide (PI, Sigma, St. Louis, Mo., USA) (5 μg/ml and 2 μg/ml). Then, the cells were photographed by means of a fluorescence microscope, and the cells were divided morphologically into early apoptotic, late apoptotic and necrotic cells. […] The results are plotted in FIG. 4.

[10] = tested on: HL-60 cells; experiment: Cell cycle distribution by FACS in HL-60 cells; assay type: cell-based, human; conditions: 24 hours
Protocol: HL-60 cells were incubated in the presence of hexahydroxystilbene. After 24 hours, the cells were washed, centrifuged and fixed in alcohol. Then, […] and examined by means of FACS analysis. Then, the cell cycle phase distribution was calculated.

[11] = HL-60, Table 3, 72 h, read-out: Growth inhibition (72 h) HL-60
[12] = HL-60, read-out: IC50 (50% inhibition of cell growth), HL-60, 2nd determination series, 72 hours of incubation

T1 sequence (P23219 24-599): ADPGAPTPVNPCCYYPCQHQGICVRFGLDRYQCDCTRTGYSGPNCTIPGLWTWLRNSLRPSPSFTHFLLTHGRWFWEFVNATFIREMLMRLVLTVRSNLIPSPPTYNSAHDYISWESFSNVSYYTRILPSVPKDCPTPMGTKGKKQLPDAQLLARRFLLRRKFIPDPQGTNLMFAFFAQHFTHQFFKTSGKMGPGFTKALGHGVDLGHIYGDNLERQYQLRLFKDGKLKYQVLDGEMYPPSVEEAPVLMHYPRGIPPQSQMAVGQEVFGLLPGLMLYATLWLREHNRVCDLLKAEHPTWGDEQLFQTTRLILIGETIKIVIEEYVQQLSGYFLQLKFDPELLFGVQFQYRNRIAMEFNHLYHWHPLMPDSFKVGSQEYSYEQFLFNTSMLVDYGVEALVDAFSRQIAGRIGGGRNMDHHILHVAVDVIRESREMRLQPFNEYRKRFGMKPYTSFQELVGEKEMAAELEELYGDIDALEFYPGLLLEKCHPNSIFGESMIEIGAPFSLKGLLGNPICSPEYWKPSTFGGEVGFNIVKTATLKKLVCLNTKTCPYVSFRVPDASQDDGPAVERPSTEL

Row | Structure (SMILES) | pIC50 [1, 11] | pIC50 [2] | pIC50 [3] | pIC50 [4] | IC50 [5] [µM] | IC50 [6] [µM] | COX2/COX1 Ratio [6] | IC50 ([1]; HL-60) [µM] | also measured
1 | COc1cc(C=Cc2cc(OC)cc(OC)c2)cc(OC)c1 [M1, 3,3′,5,5′-Tetramethoxystilbene] | < 4.00 | 4.46 | 4.68 | 4.60 |  |  |  |  | 
2 | COc1cc(C=Cc2cc(OC)c(OC)c(OC)c2)cc(OC)c1 [M2, 3,3′,4,5,5′-Pentamethoxystilbene] | 4.60 | 4.68 | < 4.00 | 4.17 | 10 | 0.6 | 0.06 | 25 | 
3 | COc1cc(C=Cc2cc(OC)c(OC)c(OC)c2)cc(OC)c1OC [M3, 3,3′,4,4′,5,5′-Hexamethoxystilbene] | < 4.00 | 5.26 | 4.43 | 4.90 | 10 | 0.5 | 0.05 | > 100 | 
4 | COc1ccc(C=Cc2cc(OC)c(OC)c(OC)c2)cc1 [M4, 3,4,4′,5-Tetramethoxystilbene] | 4.70 | 5.52 | 6.40 | 6.40 |  |  |  |  | 
5 | COc1cccc(C=Cc2cc(OC)cc(OC)c2)c1 [M5, 3,3′,5-Trimethoxystilbene] | 5.30 | 5.52 | 5.20 | 5.22 |  |  |  |  | 
6 | COc1cc(C=Cc2ccc(OC)c(OC)c2)cc(OC)c1 [M5A, 3,3′,4′,5-Tetramethoxystilbene] | 4.60 | 4.46 | 5.20 | 4.52 |  |  |  |  | 
7 | Oc1cc(O)cc(C=Cc2cc(O)cc(O)c2)c1 [M6, 3,3′,5,5′-Tetrahydroxystilbene] | 4.90 | 4.80 | 4.08 | 4.77 | 0.01 | < 0.001 | <0.1 | 12.5 | 
8 | Oc1cc(O)cc(C=Cc2cc(O)c(O)c(O)c2)c1 [M7, 3,3′,4,5,5′-Pentahydroxystilbene] | 5.00 | 5.30 | 5.12 | 4.64 | 0.01 | 0.005 | 0.5 | 10 | 
9 | Oc1cc(C=Cc2cc(O)c(O)c(O)c2)cc(O)c1O [M8, 3,3′,4,4′,5,5′-Hexahydroxystilbene] | 5.40 | 5.60 | 5.47 | 4.60 | 0.5 | 0.001 |  | 4 | pIC50 [1, 12]: 5.20; pIC50 ([1]; HL-60, adding 50 or 100 μM of vitamin C, read-out: IC50 of growth inhibition, HL-60, with added vitamin C): 5.70; dCTP pools, % of the control values ([7]; 6.25 μM): 110%; dTTP pools, % of the starting values ([7]; 6.25 μM): 84%; dATP concentrations, % of the starting values ([7]; 12.5 μM): 27%; dCTP pools, % of the control values ([7]; 12.5 μM): 137%; dTTP pools, % of the starting values ([7]; 12.5 μM): 72%; dATP concentrations, % of the starting values ([7]; 25 μM): 41%; dCTP pools, % of the control values ([7]; 25 μM): 199%; dTTP pools, % of the starting values ([7]; 25 μM): 27%; dATP values, % of the starting values [8]: 1.5%; Cells with induction of apoptosis ([9]; 6.25 μM): 68.5%; Apoptosis induction compared with resveratrol, in words [9]: induced apoptosis in these cells in the case of significantly lower concentrations than resveratrol; Cell cycle distribution, G2-M phase, in words [10]: a depletion of cells resulted in the G2-M phase; Cell cycle distribution, S phase, in words [10]: stopped the cells in S phase
10 | Oc1ccc(C=Cc2cc(O)c(O)c(O)c2)cc1 [M9, 3,4,4′,5-Tetrahydroxystilbene] | 5.05 | 5.10 | 5.02 | 4.52 | 5 | 0.01 | 0.002 | 9 | 
11 | Oc1cc(O)cc(C=Cc2ccc(O)c(O)c2)c1 [M10, 3,3′,4′,5-Tetrahydroxystilbene] | 5.05 | 4.74 | 4.48 | 4.24 | 5 | 0.005 |  | 9 | 
12 | Oc1ccc(C=Cc2cc(O)cc(O)c2)cc1 [Resveratrol, 3,4′,5-Trihydroxystilbene, reference compound] | 4.92 | 4.80 | 5.30 | 5.00 |  |  |  | 12 | pIC50 [1, 12]: 4.92
13 | O=C1O[C@H]([C@@H](O)CO)C(O)=C1O [Vitamin C, reference compound] |  |  |  |  |  |  |  |  | Action on cell growth of HL-60, in words ([1]; 50 or 100 μM, alone): no action on the cell growth
